Experiments:
[1] = target: T1, GST-PPARγ LBD (Homo sapiens, UniProt P37231); experiment: LanthaScreen TR-FRET competition binding assay
T1 construct: The GST-PPARγ LBD was labeled with a terbium-linked antibody; purchased Invitrogen
T1 sequence (P37231 238-503 limits assumed): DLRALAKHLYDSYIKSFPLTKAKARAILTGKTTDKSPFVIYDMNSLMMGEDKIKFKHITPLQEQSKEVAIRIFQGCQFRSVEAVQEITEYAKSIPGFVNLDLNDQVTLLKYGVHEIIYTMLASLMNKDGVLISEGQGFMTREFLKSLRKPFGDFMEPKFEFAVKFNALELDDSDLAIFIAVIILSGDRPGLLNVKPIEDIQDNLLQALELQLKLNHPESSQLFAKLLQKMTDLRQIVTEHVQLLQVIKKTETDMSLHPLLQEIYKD
Experimental: To determine the PPARγ binding affinities of the synthesized compounds, we performed competition experiments using LanthaScreen TR-FRET assays.
Figure 3 Characterization of VSP-51 binding. […] GST-PPARγ LBD and the fluorescent PPARγ ligand Fluormone™ were used at 0.5 nM of concentration, each. Terbium-coated anti-GST antibody was used at 4.95 nM of concentration. (A) LanthaScreen TR-FRET ratios for ligands at 1 and 10 μM of concentrations (n = 2, error bars = SEM). […] Concentrations are presented on a log10 scale (n = 2, error bars = SEM).
The GST-PPARγ LBD was labeled with a terbium-linked antibody and incubated with a fluorescent small molecule pan-PPAR ligand (Fluormone™ Pan-PPAR Green). Excitation of terbium fluorescence at 340 nm results in a time-resolved fluorescence energy transfer (TR-FRET) to bound Fluormone with an emission at 520 nm. Agonist binding was determined as decrease in FRET (ratio of emission at 520 nm to emission from terbium fluorescence at 495 nm) due to the displacement of the fluorescent tracer from the ligand binding domain upon agonist binding. The inhibition constant (ki) for competitor was calculated by applying the Cheng-Prusoff equation as following: […]

[2] = tested on: 3T3-L1 cells; conditions: after 7 days; for expression of key adipogenic genes (C/EBPα, aP2, CD36, FASN, LPL, PPARγ), mRNA: normalized to β-actin
[3] = tested on: 3T3-L1 cells; experiment: Adipocyte differentiation assay, Oil Red O staining; conditions: for adipocyte differentiation (Oil-red O staining) / % Oil Red staining: 1 μM; for % Oil Red staining: differentiated 3T3-L1 cells, ImageJ analysis

Row | Structure (SMILES) | relative PPARγ binding affinity (reduction of TR-FRET emission ratio) ([1]; 1 and 10 μM compound) | Ki ([1]; calculated by the Cheng-Prusoff equation, tracer 5 nM, kd 2.8 nM) | IC50 ([1]; displacement of Fluormone Pan-PPAR Green, dose-response 0.01 pM - 100 μM, n = 2) | expression level of Adiponectin, mRNA [2] | expression of PTPIB, mRNA [2] | expression of SOCS3, mRNA [2] | expression of key adipogenic genes (C/EBPα, aP2, CD36, FASN, LPL, PPARγ), mRNA [2] | adipocyte differentiation (Oil-red O staining) ([3]; 3T3-L1 cells) | total number of adipocytes ([3]; 3T3-L1 cells, VSP-51 added during Rosi treatment) | % Oil Red staining [3]
1 | O=C(NCc1ccccc1)c1ccc2c(ccn2Cc2ccc(Cl)c(F)c2)c1 [VSP-51] | highest binding affinity for PPARγ among the synthesized compounds | 8.06 nM | 22.4 nM | efficiently increased | remarkably inhibited | remarkably inhibited | little or no change | very few cells were stained | clear decrease | 5.95%
2 | CN(CCOc1ccc(CC2SC(=O)NC2=O)cc1)c1ccccn1 (stereo not shown) [Rosi, rosiglitazone, reference compound] |  |  |  |  |  |  | robustly stimulated | potently stimulated adipocyte differentiation |  | 85.16%

— publication PMC5270246, “Identification of a novel selective PPARγ ligand with a unique binding mode and improved therapeutic profile in vitro” (Scientific Reports, 2017)
